Source: patent publication US20130345164A1, “TREATMENTS FOR CELLULAR PROLIFERATIVE DISORDERS AND IDENTIFICATION THEREOF” (UNIVERSITY OF MEDICINE AND DENTISTRY OF NEW JERSEY, priority 2010, published 2013)

Columns and labels:
[1] = test system: p21 protein; test: Western Blot of p21 protein levels; assay type: cell-based, human
[2] = test system: cells carrying p53 mutations; test: NCI60 screen Score ranking, p53 mutant case group vs p53 wild-type control group; details: p53 273/248 mutant case group vs p53 wild-type control group; NCI60 data
Description: The Score calculations are carried out by: • (1) calculating a Responsive Fraction, i.e., the fraction of the case cell lines in the Case Group that are responsive to the test treatment; • (2) calculating a Non-Responsive Fraction i.e., the fraction of the control cell lines in the Control Group that are not responsive to the test treatment; and • (3) generating a Score of the test treatment according to Formula I:
Score=the Responsive Fraction×the Non-Responsive Fraction.
Among the NCI60 cell lines, 16 have wild-type p53 and 44 carry a p53 alteration (Ikediobi, O. N., et al., Mol Cancer Ther, 2006. 5(11): p. 2606-12). Mutations at amino acids 273 and 248 are the most frequent, with 5 and 4 cell lines, respectively. Given the abundance of p53 mutations at positions 273 and 248 within the NCI60 cell lines, and their location in the p53-DNA contact, cells carrying these mutations were chosen to form a case group to identify compounds with increased activity in tumors with a mutant p53. On the other hand, cells with a wild-type p53 were chosen to form a control group. The resulting groups are the following:
• Leukemia: CCRF-CEM; • Lung Cancer: NCI-H322M; • Central Nervous System Cancer: SF-295, SF-268, SNB-19, and U251; • Colorectal Cancer: HT29 and SW-620; • Ovarian Cancer: OVCAR-3.
• Breast Cancer: MCF7; • Colorectal Cancer: HCT-116; • Lung Cancer: A549, NCI-H226, and NCI-H460; • Leukemia: SR; • Melanoma: LOXIMVI, MALME-3M, SK-MEL-5, UACC-257, and UACC-62; • Ovarian Cancer: OVCAR-5; • Renal Cancer: A498, ACHN, CAKI-1, and UO-31.
Using the protocols described above, the NCI60 treatment-cell line RG was constructed, taking RS=log10IC50-average(log10IC50) as a relative response sensitivity measurement and computing the average(log10IC50) over all the 60 cell lines. The Case and Control groups listed above were chosen, and the score in Formula I was computed for the 47,624 compounds in the NCI60 screen.

[3] = test system: p53 targets (p21, PUMA, and MDM2); test: Quantitative real-time PCR of p53 targets; assay type: cell-based, human; details: TOV112D cells, treated vs untreated, normalized with actin
Description: (§1) Each treatment had three independent repeats (labeled as 1, 2, and 3); (e) Comparison of the p53 expression signatures of 319726 treated cells with that of p53 wild type, p53 null and p53R175H cell lines in response to gamma-irradiation.
Assays were carried out to compare the mRNA levels of several p53 targets (p21, PUMA, and MDM2) in the TOV112D (p53R175H), OVCAR3 (p53R248W) and SKOV3 (p53 null) upon treatment with the compounds. The relative gene expression level was normalized with the actin and the ratio of the treated level vs. untreated level was shown for each cell line.

[4] = test system: murine fibroblast cell line (10)3 (p53 null); test: Growth inhibition assay on isogenic murine fibroblast lines (96-well MTS); assay type: cell-based; details: p53^null cells
Description: (§2) None of these compounds have been previously reported for their selective activity in cells with a mutant p53. To provide further evidence for their specificity, growth inhibition assays were performed on isogenic cell lines. Previously developed murine fibroblast cell line (10)3 (p53 null) and 10(3) with transfection of cytomegalovirus-human mutant p53 constructs (273, 248 and 175) (Dittmer, D., et al., Nature Genetics, 1993. 4(1): p. 42-6) were used as cases, while the murine fibroblast cell line 3T3 was used as a p53 wild type control.
(§3) The compounds were validated using several different cell line systems. The first system used was a mouse embryonic fibroblast (MEF) system in which a p53 null MEF line, 10(3), was used as a parental line from which several stable CMV-mutant p53 transfectants were derived. The p53 mutations investigated were the “hot spot” mutants 175, 248, and 273. NIH3T3 fibroblasts were used as a p53 wild type control.

[5] = test system: 10(3) cells with human mutant p53 construct 273; test: as above; assay type: cell-based; details: cells with mutation p53^273
Description: as §2, §3

[6] = test system: 10(3) cells with human mutant p53 construct 248; test: as above; assay type: cell-based; details: cells with mutation p53^248
Description: as §2, §3

[7] = test system: 10(3) cells with human mutant p53 construct 175; test: as above; assay type: cell-based
Description: as §2, §3

[8] = test system: MEF cells with exogenous p53 mutations; test: Apoptosis by Annexin V staining in MEF cells; assay type: cell-based, mouse; details: for induction of apoptosis (Annexin V staining): MEF cells with exogenous p53 mutations
Description: (§4) Briefly, apoptosis was examined by Annexin V staining using standard methods.

[9] = target: T1, p53 R175H (Homo sapiens, UniProt P04637, R175H); test: Immunoprecipitation of TOV112D lysates with mutant specific antibody PAB240; assay type: cell-based; details: detection with DO-1
T1 construct: one ovarian carcinoma cell line containing a p53^R175H (TOV112D); endogenous in cells; host or cells: TOV112D human ovarian carcinoma cells
Description: This conformational change was confirmed by immunoprecipitation of lysates from NSC319726-treated TOV112D cells using the mutant specific antibody PAB240. To that end, cell lysates were precipitated with PAB240 and detected with p53 (DO-1) antibody which recognizes all types of p53 protein conformations.

[10] = target: T2, p53^R175H mutant protein (Homo sapiens, UniProt P04637, R175H); test: Immuno-fluorescent staining with conformation-specific antibodies (PAB1620, PAB240, PAB1801) in TOV112D; assay type: cell-based
T2 construct: one ovarian carcinoma cell line containing a p53^R175H (TOV112D); endogenous in cells; host or cells: TOV112D human ovarian carcinoma cells
Description: Conformational change to wild type in TOV112D (p53R175H) was studied by immuno-fluorescent staining.

[11] = test system: p53 response element (p53RE) in the p21 promoter, MEF cells with exogenous 248 or 273 mutations; test: Luciferase reporter assay, p53RE of the p21 promoter; assay type: cell-based, mouse; details: MEF cell lines expressing the 248 and 273 alleles
Description: (§5) To that end, luciferase activity assays were performed. Briefly, a 20-bp p53 response element (p53RE) was subcloned in the pGL3 vector to generate a luciferase reporter plasmid, which contained 20 base pairs of the p53 response element in the p21 promoter. The sequences of the 5′ site and 3′ site at −2.27 kb and −1.38 kb (SEQ ID NOs: 1 and 3) and their reverse complements (SEQ ID NOs: 2 and 4) are listed below:
(§6) The reporter plasmid was transfected to the TOV112D cells or MEF cells with exogenous 248 or 273 mutations. Cells thus-transfected were treated with NSC319726 and subjected to luciferase assays. […] This effect was not seen in MEF cell lines expressing the 248 and 273 alleles, FIG. 10b.

[12] = test system: murine fibroblast cell line 3T3 (p53 wild type control); test: Growth inhibition assay on isogenic murine fibroblast lines (96-well MTS); assay type: cell-based; details: FIG. 5c
Description: as §2, §3

[13] = test system: p53 null cell line (SKOV3); test: Growth inhibition after silencing of p53 by siRNA; assay type: cell-based, human
Description: (§7) In contrast, the sensitivity of the p53 null cell line (SKOV3) was not reduced by the siRNA in a similar fashion.

[14] = test system: TOV112D cells; test: Growth inhibition after silencing of p53 by siRNA; assay type: cell-based, human; details: p53^R175H silenced by siRNA
Description: as §7

[15] = test system: p53^R172H/R172H mice tissues; test: Cleaved Caspase-3 immuno-staining and quantitative-PCR of p53 targets in mouse tissues; assay type: in vivo
[16] = test system: p53 wild type cell lines (H460, HCT116, MCF7 and WI38); test: Sensitivity of human tumor cell line system; assay type: cell-based; details: 0.1 μM to 10 μM
[17] = test system: H460-p53 wildtype, MDAMB468-p53^R273H, HCT116-p53 null and TOV112D-p53^R175H xenograft tumors; test: Mouse xenograft tumor growth; assay type: in vivo; details: 1 μg/g intravenously once daily vs control
[18] = Toxicity assays in p53 wild type, p53 null and p53^R172H mice; assay type: in vivo; details: for survival by day 4: 10 mg/kg intraperitoneally daily; for survival by day seven: 5 mg/kg
Description: Toxicity assays were performed in p53 wild type, p53 null, and p53^R172H mice to determine if in vivo p53 mutant synthetic lethality could be detected.
First, three groups of mice: […], p53^+/R172H/R172H mice, were compared.
Next, the dose was lowered to 5 mg/kg and three groups of mice (p53 wild type, p53 null, and p53^R172H/R172H) were compared.

[19] = test system: TOV112D (p53^R175H) ovarian carcinoma cell line; test: Sensitivity of human tumor cell line system; assay type: cell-based; details: 0.1 μM to 10 μM
Description: Five tumor cell lines with endogenous […] mutations were compared, including two cell lines containing R248W mutations and three cell lines with a R273H mutation.

[20] = test system: MEF-p53^R172H cells; test: Viability assay in 12-well cultures (Guava PCA) in MEF lines of the same strain; assay type: cell-based, mouse; details: MEF-p53^R172H vs MEF-p53 wild type and MEF-p53 null
Description: The sensitivity was measured in 12-well cultures for viability assay using the Guava PCA instrument following the manufacture protocol.

[21] = test system: p53 response element (p53RE) in the p21 promoter, TOV112D cells; test: Luciferase reporter assay, p53RE of the p21 promoter; assay type: cell-based, human
Description: as §5, §6

[22] = test system: panel of p53 targets; test: Microarray analysis of p53 target genes in TOV112D cells; assay type: cell-based, human; details: TOV112D vs untreated controls
Description: as §1
To examine the transcriptional activity of the NSC319725 and […]-treated cells on a larger scale, microarrays were used to analyze control- and compound-treated TOV112D cells.

[23] = test system: TOV112D-p53R175H, OVCAR3-p53 R248W and SKOV3-p53 null; test: Apoptosis by Annexin V staining in ovarian carcinoma cell lines; assay type: cell-based, human; details: three ovarian carcinoma cell lines
Description: as §4

[24] = cells carrying the p53^173 mutation (so in the source)

COc1cc([C@@H]2c3cc4c(cc3[C@@H](O[C@@H]3O[C@@H]5CO[C@@H](C)O[C@H]5[C@H](O)[C@H]3O)[C@H]3COC(=O)[C@H]23)OCO4)cc(OC)c1O [Etoposide, reference compound]
p21 induction (Western blot) ([1]; TOV112D (p53R175H)): failed to induce p21

CC1=CC(=C(c2ccc(N)cc2)c2ccc(N)cc2)C=CC1=N.Cl [NSC93739]
Score (Formula I) [2]: 0.50

COc1ccc2c(c1)c1c(C)c3c[n+](C)ccc3c(C)c1n2C [NSC155694]
Score (Formula I) [2]: 0.55

CC(=NNC(=S)N(C)C)c1ccccn1 [NSC319725]
induction of mRNA of p53 targets p21, PUMA, MDM2 [3]: no such effect
IC50 [4]: ~100 nM
IC50 [5]: ~100 nM
IC50 [6]: ~100 nM
IC50 [7, 24]: ~10 nM
Score (Formula I) [2]: 0.50
induction of apoptosis (Annexin V staining) [8]: did not induce apoptosis
p21 induction (Western blot) ([1]; SKOV3 (p53 null)): did induce p21
p21 induction (Western blot) ([1]; TOV112D (p53R175H)): did not induce p21
amount of p53 R175H immunoprecipitated by mutant specific antibody PAB240 [9]: not

C/C(=N\NC(=S)N1CCC1)c1ccccn1 [NSC319726]
conformational change of p53^R175H (recognised by PAB1620, no longer by PAB240) [10]: induced a change in conformation
increase in luciferase activity [11]: not seen
induction of mRNA of p53 targets p21, PUMA, MDM2 [3]: induced all three targets
IC50 [4]: ~100 nM
IC50 [5]: ~100 nM
IC50 [6]: ~100 nM
IC50 [12]: not even reached
IC50 ([7]; 175 mutant, FIG. 5c): 8 nM
IC50 [7, 24]: ~10 nM
change of sensitivity on p53 siRNA [13]: not reduced
change of sensitivity on p53 siRNA [14]: reduced by four-fold
cleaved Caspase-3 immuno-stained cells in spleen and thymus ([15]; p53^R172H/R172H mice vs wild type controls, 24 hours treatment): abundantly more cleaved Caspase-3 immuno-stained cells
mRNA levels of p53 targets in tissues ([15]; p53^R172H/R172H mice vs wild type, lung, spleen, thymus, small intestine, 24 hours): Elevated mRNA levels
sensitivity [16]: relative lack of sensitivity
xenograft tumor growth inhibition [17]: inhibited mouse xenograft tumor growth in an allele specific mutant p53 dependent manner
Score (Formula I) [2]: 0.52
apoptosis response of (10)3/175 ([8]; (10)3/175 compared with other MEF lines): strongest apoptosis response
induction of apoptosis (Annexin V staining) [8]: induced apoptosis
mice alive by day seven ([18]; mouse, in vivo, ip, 10 mg/kg): approximately 40%
survival by day 4 ([18]; p53^+/R172H mice): 30%
survival by day seven ([18]; p53^R172H/R172H mice): 30%
survival by day seven ([18]; p53 null mice): 100%
survival by day seven ([18]; p53 wild type mice): 100%
survival by day 4 ([18]; p53 wild type mice): 70%
p21 induction (Western blot) ([1]; TOV112D (p53R175H)): induced p21
sensitivity [19]: marked sensitivity
sensitivity compared to p53 wild type and p53 null controls [20]: much higher sensitivity
increase in luciferase activity [21]: 2.5 fold
transcriptional levels of panel of p53 targets (microarray) [22]: induced a large proportion of these genes
amount of p53 R175H immunoprecipitated by mutant specific antibody PAB240 [9]: greatly reduced
induction of apoptosis (Annexin V staining) [23]: induction of apoptosis in all three

CC(=O)c1ccc2c(c1)c1c(C)c3c[n+](C)ccc3c(C)c1n2C.[I-] [NSC612941]
Score (Formula I) [2]: 0.55

Cc1ccc(S(=O)(=O)O)cc1.Cn1c2ccccc2n2c3ccccc3c3nnc(N)c-3c12 [NSC694266]
Score (Formula I) [2]: 0.50
